Measured values as given in ChEMBL document CHEMBL1155313, “Inhibitory effect of chalcones and their derivatives from Glycyrrhiza inflata on protein tyrosine phosphatase 1B” (Bioorg Med Chem Lett, 2009).

Biological target: T1, Tyrosine-protein phosphatase non-receptor type 1 (Homo sapiens, UniProt P18031)
T1 sequence (P18031 whole entry): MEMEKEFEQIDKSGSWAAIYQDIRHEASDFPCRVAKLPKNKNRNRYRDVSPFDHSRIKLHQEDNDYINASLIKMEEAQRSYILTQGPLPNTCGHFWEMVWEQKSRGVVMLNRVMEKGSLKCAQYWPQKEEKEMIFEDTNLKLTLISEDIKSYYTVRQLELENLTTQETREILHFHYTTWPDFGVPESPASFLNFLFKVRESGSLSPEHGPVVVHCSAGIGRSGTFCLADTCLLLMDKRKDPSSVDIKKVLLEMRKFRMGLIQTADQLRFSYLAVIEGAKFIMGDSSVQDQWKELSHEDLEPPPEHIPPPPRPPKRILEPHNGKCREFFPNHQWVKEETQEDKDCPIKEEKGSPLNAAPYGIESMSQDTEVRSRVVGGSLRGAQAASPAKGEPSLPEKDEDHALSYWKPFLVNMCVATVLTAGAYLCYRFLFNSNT
Test: Inhibition of recombinant human PTP1B assessed as hydrolysis of p-nitrophenyl phosphate after 30 mins

SMILES	IC50 [µM]
O=C(/C=C/c1ccc(O)cc1)c1ccc(O)cc1O [ISOLIQUIRITIGENIN]	> 50
COc1c(/C=C/C(=O)c2ccc(O)cc2)ccc(O)c1CC=C(C)C	30.9
O=C1C[C@@H](c2ccc(O)cc2)Oc2cc(O)ccc21 [LIQUIRTIGENIN]	> 50
COc1cc(O)ccc1/C=C/C(=O)c1ccc(O)cc1 [ECHINATIN]	> 50
C=C(C)C(C)c1cc(/C=C/C(=O)c2ccc(O)cc2)c(OC)cc1O (centres undefined)	20.7
C=CC(C)(C)c1cc(/C=C/C(=O)c2ccc(OC(C)=O)cc2)c(OC)cc1OC	29.2
C=CC(C)(C)c1cc(/C=C/C(=O)c2ccc(OC(C)=O)cc2)c(OC)cc1OC(C)=O	> 50

These reach a lower IC50. Values come first.

IC50 [µM]	SMILES
19.8	C=CC(C)(C)c1cc(/C=C/C(=O)c2ccc(OC)cc2)c(OC)cc1OC
19.4	C=CC(C)(C)c1cc(/C=C/C(=O)c2ccc(OC)cc2)c(OC)cc1OC(C)=O
19.2	C=CC(C)(C)c1cc(/C=C/C(=O)c2ccc(OC(C)=O)cc2)c(OC)cc1O
19.1	C=CC(C)(C)c1cc(/C=C/C(=O)c2ccc(O)cc2)c(OC)cc1O [LICOAGROCHACONE A]
18.3	C=CC(C)(C)c1cc(/C=C/C(=O)c2ccc(O)cc2)c(OC)cc1OC
17.3	C=CC(C)(C)c1cc(/C=C/C(=O)c2ccc(O)cc2)c(OC)cc1OC(C)=O
11.7	C=CC(C)(C)c1cc(/C=C/C(=O)c2ccc(OC)cc2)c(OC)cc1O
